# Assay results reported in patent US9586936B2, “Heteroarylamine derivatives as protein kinase inhibitors” (KOREA INSTITUTE OF SCIENCE AND TECHNOLOGY, priority 2014, dated 2017).
# What was measured:
# [1] = test system: bladder cancer cell line RT112; experiment: inhibition of proliferation of cancer cells; assay type: cell-based; settings: Homo sapiens, RT-112, read-out: Ability of inhibiting proliferation of RT112 (GI50)
# Procedure: The ability of the compound of the present invention of inhibiting the proliferation of the bladder cancer cell line RT112 was determined as the GI50 value.
# [2] = test system: RT112 bladder cancer cell line; settings: literature statement; cited from earlier work
# FGFR3 = FGFR3 (Homo sapiens, UniProt P22607); settings: literature statement; cited from earlier work
# microsomal stability [3] = assay type: in vitro ADME, Mouse; settings: Mouse
# Procedure: (§1) The microsomal stability of N-(2,6-dichloro-3,5-dimethoxyphenyl)-1-(6-((4-(4-ethylpiperazin-1-yl)phenyl)amino)pyrimidin-4-yl)-1H-benz[d]imidazol-2-amine synthesized in Example 1, as a representative compound of the present invention, was evaluated.
# microsomal stability [4] = assay type: in vitro ADME, Rat; settings: Rat
# Procedure: as §1
# microsomal stability [5] = assay type: in vitro ADME, Dog; settings: Dog
# Procedure: as §1
# microsomal stability [6] = assay type: in vitro ADME, Human; settings: Human
# Procedure: as §1
# Sequence of FGFR3 (P22607 23-806): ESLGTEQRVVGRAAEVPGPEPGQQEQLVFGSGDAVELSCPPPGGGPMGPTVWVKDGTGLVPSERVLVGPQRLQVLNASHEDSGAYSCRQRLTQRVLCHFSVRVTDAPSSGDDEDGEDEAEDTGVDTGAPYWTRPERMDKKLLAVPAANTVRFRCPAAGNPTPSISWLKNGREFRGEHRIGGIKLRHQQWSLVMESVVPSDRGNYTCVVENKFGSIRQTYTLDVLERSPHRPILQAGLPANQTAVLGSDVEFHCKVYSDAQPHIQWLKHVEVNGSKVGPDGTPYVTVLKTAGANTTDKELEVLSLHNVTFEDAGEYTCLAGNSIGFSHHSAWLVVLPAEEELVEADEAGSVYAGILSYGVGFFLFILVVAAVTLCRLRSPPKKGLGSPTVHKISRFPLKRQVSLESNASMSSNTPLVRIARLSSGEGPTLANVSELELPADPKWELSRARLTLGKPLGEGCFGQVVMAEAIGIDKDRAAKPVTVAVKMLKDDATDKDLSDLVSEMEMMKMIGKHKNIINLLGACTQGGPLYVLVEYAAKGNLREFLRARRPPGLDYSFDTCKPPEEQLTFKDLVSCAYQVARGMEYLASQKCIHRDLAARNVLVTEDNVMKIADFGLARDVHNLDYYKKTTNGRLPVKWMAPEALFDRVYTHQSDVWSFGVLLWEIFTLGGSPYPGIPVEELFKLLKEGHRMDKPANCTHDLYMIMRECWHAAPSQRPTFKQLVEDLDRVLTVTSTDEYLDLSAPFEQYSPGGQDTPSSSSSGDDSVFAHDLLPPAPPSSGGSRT
structure (smiles),measurement,setting,value
"COc1cc(N2CCN(C)CC2)ccc1Nc1cc(-n2c(Nc3c(Cl)c(OC)cc(OC)c3Cl)nc3ccccc32)ncn1 [Example 2, N-(2,6-dichloro-3,5-dimethoxyphenyl)-1-(6-((2-methoxy-4-(4-methylpiperazin-1-yl)phenyl)amino)pyrimidin-4-yl)-1H-benz[d]imidazol-2-amine]",GI50,[1],< 1000 nM
"COc1cc(OC)c(Cl)c(Nc2nc3ccccc3n2-c2cc(Nc3ccc(N4CCOCC4)cc3)ncn2)c1Cl [Example 3, N-(2,6-dichloro-3,5-dimethoxyphenyl)-1-(6-((4-morpholinophenyl)amino)pyrimidin-4-yl)-1H-benz[d]imidazol-2-amine]",GI50,[1],< 1000 nM
"COc1cc(N2CCOCC2)ccc1Nc1cc(-n2c(Nc3c(Cl)c(OC)cc(OC)c3Cl)nc3ccccc32)ncn1 [Example 4, N-(2,6-dichloro-3,5-dimethoxyphenyl)-1-(6-((2-methoxy-4-morpholinophenyl)amino)pyrimidin-4-yl)-1H-benz[d]imidazol-2-amine]",GI50,[1],< 1000 nM
"COc1cc(OC)c(Cl)c(Nc2nc3ccccc3n2-c2cc(Nc3ccc(N4CCC(N5CCCCC5)CC4)c(C(F)(F)F)c3)ncn2)c1Cl [Example 5, 1-(6-((4-([1,4′-bipiperidin]-1′-yl)-3-(trifluoromethyl)phenyl)amino)pyrimidin-4-yl)-N-(2,6-dichloro-3,5-dimethoxyphenyl)-1H-benz[d]imidazol-2-amine]",GI50,[1],< 10000 nM
"COc1cc(OC)c(Cl)c(Nc2nc3ccccc3n2-c2cc(Nc3ccc(CN4CCN(CC5CCCCC5)CC4)cc3)ncn2)c1Cl [Example 6, 1-(6-((4-((4-(cyclohexylmethyl)piperazin-1-yl)methyl)phenyl)amino)pyrimidin-4-yl)-N-(2,6-dichloro-3,5-dimethoxyphenyl)-1H-benz[d]imidazol-2-amine]",GI50,[1],< 10000 nM
COc1cc(OC)c(Cl)c(Nc2nc3ccccc3n2-c2cc(N)ncn2)c1Cl [Example 8],GI50,[1],< 1000 nM
"CNc1cc(-n2c(Nc3c(Cl)c(OC)cc(OC)c3Cl)nc3ccccc32)ncn1 [Example 9, N-(2,6-dichloro-3,5-dimethoxyphenyl)-1-(6-(methylamino)pyrimidin-4-yl)-1H-benz[d]imidazol-2-amine]",GI50,[1],< 1000 nM
"COc1cc(OC)c(Cl)c(Nc2nc3ccccc3n2-c2cc(Nc3ccccc3)ncn2)c1Cl [Example 10, N-(2,6-dichloro-3,5-dimethoxyphenyl)-1-(6-(phenylamino)pyrimidin-4-yl)-1H-benz[d]imidazol-2-amine]",GI50,[1],< 1000 nM
"COc1cc(OC)c(Cl)c(Nc2nc3ccccc3n2-c2cc(Nc3ncccn3)ncn2)c1Cl [Example 11, N-(2,6-dichloro-3,5-dimethoxyphenyl)-1-(6-(pyrimidin-2-ylamino)pyrimidin-4-yl)-1H-benz[d]imidazol-2-amine]",GI50,[1],< 1000 nM
"CCN1CCN(c2ccc(Nc3cc(N(C)C(=O)Nc4c(Cl)c(OC)cc(OC)c4Cl)ncn3)cc2)CC1 [NVP-BGJ398, 3-(2,6-dichloro-3,5-dimethoxyphenyl)-1-{6-[4-(4-ethyl-piperazin-1-yl)phenylamino]pyrimidin-4-yl}-1-methylurea]","anticancer activity for the RT112 bladder cancer cell line, in words",[2],effective anticancer activity
same,"inhibition activity against FGFR3, in words",FGFR3,selective inhibition activity
"Cc1ncc2n1-c1ccc(Cl)cc1C(c1ccccc1F)=NC2 [midazolam, reference compound]",microsomal stability (% at time),microsomal stability [3]; 0 min,100.00%
same,microsomal stability (% at time),microsomal stability [3]; 5 min,10.42%
same,microsomal stability (% at time),microsomal stability [3]; 10 min,1.13%
same,microsomal stability (% at time),microsomal stability [3]; 15 min,0.18%
same,microsomal stability (% at time),microsomal stability [3]; 30 min,0.05%
same,microsomal stability (% at time),microsomal stability [4]; 0 min,100.00%
same,microsomal stability (% at time),microsomal stability [4]; 5 min,13.65%
same,microsomal stability (% at time),microsomal stability [4]; 10 min,1.01%
same,microsomal stability (% at time),microsomal stability [4]; 15 min,0.14%
same,microsomal stability (% at time),microsomal stability [4]; 30 min,0.04%
same,microsomal stability (% at time),microsomal stability [5]; 0 min,100.00%
same,microsomal stability (% at time),microsomal stability [5]; 5 min,6.23%
same,microsomal stability (% at time),microsomal stability [5]; 10 min,0.59%
same,microsomal stability (% at time),microsomal stability [5]; 15 min,0.27%
same,microsomal stability (% at time),microsomal stability [5]; 30 min,0.10%
same,microsomal stability (% at time),microsomal stability [6]; 0 min,100.00%
same,microsomal stability (% at time),microsomal stability [6]; 5 min,38.75%
same,microsomal stability (% at time),microsomal stability [6]; 10 min,12.92%
same,microsomal stability (% at time),microsomal stability [6]; 15 min,5.60%
same,microsomal stability (% at time),microsomal stability [6]; 30 min,0.73%
